In ChEMBL document CHEMBL1201862, “PubChem BioAssay data set” (2004):
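The compound was tested at five concentrations on cells cultured in 96-well plates, with a 48-hour exposure period. GI50 is the concentration that inhibits growth by half.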 Calls of active or inactive are those of the source. No stated cut-off is given here; in the data, active = GI50 up to about 1.1 µM and inactive = higher.

Legend:
Test in all cases: DTP human tumour cell line panel, 48 h
[1] = tested on: CCRF-CEM
[2] = tested on: HCC 2998
[3] = tested on: HCT-15
[4] = tested on: IGROV-1
[5] = tested on: K562
[6] = tested on: MCF7
[7] = tested on: MOLT-4
[8] = tested on: NCI-H23
[9] = tested on: OVCAR-3
[10] = tested on: OVCAR-4
[11] = tested on: OVCAR-8
[12] = tested on: RPMI-8226
[13] = tested on: RXF 393
[14] = tested on: SF-295
[15] = tested on: SK-MEL-2
[16] = tested on: SR
[17] = tested on: SW-620
[18] = tested on: ACHN
[19] = tested on: CAKI-1
[20] = tested on: OVCAR-5

Compound | GI50 [1] | GI50 [2] | GI50 [3] | GI50 [4] | GI50 [5] | GI50 [6] | GI50 [7] | GI50 [8] | GI50 [9] | GI50 [10] | GI50 [11] | GI50 [12] | GI50 [13] | GI50 [14] | GI50 [15] | GI50 [16] | GI50 [17] | GI50 [18] | GI50 [19] | GI50 [20]
c1cc2c(cc1NC1=NCCO1)CCC2 | > 10 µM (inactive) | > 10 µM (inactive) | > 10 µM | > 10 µM (inactive) | 9.75 µM (inactive) | > 10 µM (inactive) | > 10 µM (inactive) | > 10 µM (inactive) | > 10 µM (inactive) | > 10 µM (inactive) | > 10 µM (inactive) | > 10 µM (inactive) | > 10 µM (inactive) | > 10 µM (inactive) | > 10 µM (inactive) | > 10 µM (inactive) | 8.26 µM (inactive) | – | – | –
CCN(CC)CCCNc1ccc([N+](=O)[O-])c2nc3ccccc3c(N)c12 | 0.45 µM (active) | – | 0.883 µM | 0.622 µM (active) | 0.478 µM (active) | 0.402 µM (active) | 0.302 µM (active) | 0.828 µM (active) | 1.55 µM (inactive) | 0.627 µM (active) | 0.65 µM (active) | 0.555 µM (active) | 0.37 µM (active) | 0.581 µM (active) | 1.14 µM (inactive) | 0.512 µM (active) | 0.365 µM (active) | 0.324 µM (active) | 4.32 µM (inactive) | 0.802 µM (active)
Fc1ccc2c3c([nH]c2c1)CCNC3 | > 100 µM (inactive) | 76 µM (inactive) | > 100 µM | > 100 µM (inactive) | > 100 µM (inactive) | > 100 µM (inactive) | > 100 µM (inactive) | > 100 µM (inactive) | – | > 100 µM (inactive) | > 100 µM (inactive) | > 100 µM (inactive) | > 100 µM (inactive) | 67.8 µM (inactive) | – | > 100 µM (inactive) | > 100 µM (inactive) | 65.3 µM (inactive) | – | > 100 µM (inactive)
COc1cc(-c2oc3c(OC)c(O)c(OC)c(O)c3c(=O)c2OC)cc(OC)c1OC | 47.9 µM (inactive) | 52.4 µM (inactive) | 41.7 µM | 31.3 µM (inactive) | 36.7 µM (inactive) | 38 µM (inactive) | 59.6 µM (inactive) | > 100 µM (inactive) | 31.6 µM (inactive) | > 100 µM (inactive) | 53.7 µM (inactive) | 31.8 µM (inactive) | – | > 100 µM (inactive) | 77.1 µM (inactive) | 51.2 µM (inactive) | > 100 µM (inactive) | 48.3 µM (inactive) | 42.8 µM (inactive) | > 100 µM (inactive)
Cc1ccc(O)c(Cc2nc3ccccc3nc2-c2cccc(Cl)c2)c1 | – | 36.1 µM (inactive) | 15.4 µM | 35.2 µM (inactive) | 28.5 µM (inactive) | 40.8 µM (inactive) | 17.3 µM (inactive) | 69.3 µM (inactive) | 68.9 µM (inactive) | 10.6 µM (inactive) | > 100 µM (inactive) | 22.5 µM (inactive) | > 100 µM (inactive) | > 100 µM (inactive) | 46.3 µM (inactive) | 24.7 µM (inactive) | 59 µM (inactive) | 49 µM (inactive) | 52.7 µM (inactive) | > 100 µM (inactive)
CC1=NN(c2nc(N)nc(CSc3nc4n(c(=S)n3)CCN4)n2)C(C)(C)C1 | > 100 µM (inactive) | > 100 µM (inactive) | 32 µM | 15.1 µM (inactive) | > 100 µM (inactive) | 51.5 µM (inactive) | > 100 µM (inactive) | 47.5 µM (inactive) | – | > 100 µM (inactive) | 18.3 µM (inactive) | > 100 µM (inactive) | 15.6 µM (inactive) | 22.9 µM (inactive) | 16.8 µM (inactive) | > 100 µM (inactive) | > 100 µM (inactive) | 44.9 µM (inactive) | 25.2 µM (inactive) | –
CCCCCC/C=C\CCCCCCCCC(=O)c1cccc(OC)c1OC | 35.6 µM (inactive) | > 100 µM (inactive) | > 100 µM | 35.4 µM (inactive) | 27.5 µM (inactive) | > 10 µM (inactive) | 25.7 µM (inactive) | 40.2 µM (inactive) | – | – | > 100 µM (inactive) | 34 µM (inactive) | 21 µM (inactive) | 45.7 µM (inactive) | > 100 µM (inactive) | 64.9 µM (inactive) | > 100 µM (inactive) | > 100 µM (inactive) | > 100 µM (inactive) | > 100 µM (inactive)
CCOC(=O)/C(=C\NC(C)(C)C)c1nc2ccccc2[nH]1 | 17.7 µM (inactive) | – | 34.2 µM | 22 µM (inactive) | – | 18.6 µM (inactive) | – | 17.7 µM (inactive) | 17.5 µM (inactive) | 24.5 µM (inactive) | 26.1 µM (inactive) | 17.2 µM (inactive) | 23.5 µM (inactive) | 20.2 µM (inactive) | – | 12.7 µM (inactive) | 25.3 µM (inactive) | 20.4 µM (inactive) | 29.2 µM (inactive) | 21.5 µM (inactive)
C[N+]12C=CC=C1C(N1CCCC1)c1scc(-c3ccccc3)c12 (stereo not given) | 22.4 µM (inactive) | – | – | 4.99 µM (inactive) | 6 µM (inactive) | 14.8 µM (inactive) | 19.3 µM (inactive) | – | 7.83 µM (inactive) | – | 22.5 µM (inactive) | 5.92 µM (inactive) | 17.8 µM (inactive) | 44.3 µM (inactive) | 6.78 µM (inactive) | 12.6 µM (inactive) | 93.3 µM (inactive) | – | > 100 µM (inactive) | 64.1 µM (inactive)
COc1ccc(N2/C(=N/c3ccccc3)SC(=N/S(=O)(=O)c3ccccc3)/C2=N\S(=O)(=O)c2ccccc2)cc1 | 20 µM (inactive) | 17.3 µM (inactive) | 13.3 µM | 13 µM (inactive) | 16.9 µM (inactive) | 18.7 µM (inactive) | 17.8 µM (inactive) | 12.9 µM (inactive) | – | – | 18.2 µM (inactive) | 20.7 µM (inactive) | 12.8 µM (inactive) | – | – | 16.8 µM (inactive) | 34.8 µM (inactive) | 23.3 µM (inactive) | – | 22.6 µM (inactive)
COc1cccc(/C=N/NC(=O)CSCC(=O)N/N=C/c2cccc(OC)c2OC)c1OC | – | > 100 µM (inactive) | > 100 µM | > 100 µM (inactive) | > 100 µM (inactive) | > 100 µM (inactive) | > 100 µM (inactive) | > 100 µM (inactive) | > 100 µM (inactive) | > 100 µM (inactive) | > 100 µM (inactive) | > 100 µM (inactive) | > 100 µM (inactive) | > 100 µM (inactive) | > 100 µM (inactive) | > 100 µM (inactive) | > 100 µM (inactive) | > 100 µM (inactive) | > 100 µM (inactive) | > 100 µM (inactive)
COc1ccc(/N=C(/C[S+]([O-])c2ccc(C)cc2)C(F)(F)F)cc1 (stereo not given) | 61.9 µM (inactive) | 41 µM (inactive) | > 100 µM | > 100 µM (inactive) | 59.7 µM (inactive) | > 100 µM (inactive) | 53.3 µM (inactive) | > 100 µM (inactive) | > 100 µM (inactive) | 59.7 µM (inactive) | > 100 µM (inactive) | – | > 100 µM (inactive) | 56.2 µM (inactive) | 50.2 µM (inactive) | > 100 µM (inactive) | > 100 µM (inactive) | 50.6 µM (inactive) | > 100 µM (inactive) | > 100 µM (inactive)
COc1ccccc1NC(=O)O/N=C(/Cl)C(C)C | 0.977 µM (active) | 15.6 µM (inactive) | 13.2 µM | 16.7 µM (inactive) | 2.24 µM (inactive) | > 10 µM (inactive) | 1.92 µM (inactive) | 14 µM (inactive) | 6.19 µM (inactive) | – | 15 µM (inactive) | 2.1 µM (inactive) | 14.9 µM (inactive) | 15.2 µM (inactive) | 16.4 µM (inactive) | 1.91 µM (inactive) | 1.82 µM (inactive) | 5.92 µM (inactive) | – | 16.3 µM (inactive)
O=c1c2cccnc2n2n1Cc1ccccc1C2 | > 100 µM (inactive) | > 100 µM (inactive) | > 100 µM | > 100 µM (inactive) | > 100 µM (inactive) | > 100 µM (inactive) | > 100 µM (inactive) | > 100 µM (inactive) | > 100 µM (inactive) | > 100 µM (inactive) | > 100 µM (inactive) | > 100 µM (inactive) | > 100 µM (inactive) | > 100 µM (inactive) | – | > 100 µM (inactive) | > 100 µM (inactive) | > 100 µM (inactive) | > 100 µM (inactive) | > 100 µM (inactive)
Oc1cc(Br)cc2cc(Br)cnc12 | 1.83 µM (inactive) | 17.1 µM (inactive) | 1.13 µM | 1.14 µM (inactive) | 1.21 µM (inactive) | 5.35 µM (inactive) | 2.55 µM (inactive) | 4.95 µM (inactive) | 1.58 µM (inactive) | 1.39 µM (inactive) | 2.96 µM (inactive) | 2.63 µM (inactive) | 1.6 µM (inactive) | 2.64 µM (inactive) | – | 1.26 µM (inactive) | 2.24 µM (inactive) | 1.48 µM (inactive) | 8.55 µM (inactive) | –
C/C(=N\NC(=S)NCc1ccccc1)c1nc2cccnc2[nH]1 | 3.27 µM (inactive) | 20.1 µM (inactive) | 4.45 µM | 8 µM (inactive) | 5.35 µM (inactive) | 3.53 µM (inactive) | 3.44 µM (inactive) | 12.8 µM (inactive) | 11.1 µM (inactive) | 16.4 µM (inactive) | 10.1 µM (inactive) | 11.5 µM (inactive) | – | 6.41 µM (inactive) | 13.1 µM (inactive) | 4.62 µM (inactive) | 9.66 µM (inactive) | 3.57 µM (inactive) | 6.52 µM (inactive) | 7.23 µM (inactive)
